In patent publication US20020137929A1, “1 - (3-heterocyclylphenyl) isothiourea, -isourea, -guanidine and -amidine herbicidal agents” (Intellectual Property Department, BASF Aktiengesellschaft, priority 1998, published 2002):

How the values were obtained:
[1] = system: ECHCG (Barnyardgrass); assay: Preemergence herbicidal evaluation; format: in vivo, Echinochloa crus-galli; conditions: rated 4-5 weeks after treatment
Summary of the method: (§1)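 Preemergence soil application of compound, sprayed in aqueous acetone at rates equivalent to about 0.0156 to 0.500 kg per hectare onto freshly sown cups. Plant response was judged by eye on a 0-9 scale four to five weeks later.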

[2] = system: ZEAMX (Corn, Field); assay: Preemergence herbicidal evaluation; format: in vivo, Zea mays; conditions: rated 4-5 weeks after treatment
Summary of the method: as §1

[3] = system: MOOVA (Monochoria); assay: Preemergence weed control under flooded paddy conditions; format: in vivo, Monochoria vaginalis; conditions: rated 3-4 weeks after treatment
Summary of the method: (§2)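 Flooded-pot preemergence screen with silt loam and seeds in the upper 0.5 cm. Dose about 0.0313 to 0.500 kg/ha, delivered into flood water; visual 0-9 score after 3 to 4 weeks.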

[4] = system: IPOHE (Morningglory, Ivyleaf); assay: Postemergence herbicidal evaluation; format: in vivo, Ipomoea hederacea; conditions: for IPOHE herbicidal rating: postemergence
Summary of the method: (§3)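 Compound is applied as a foliar spray to seedlings about two weeks old, formulated in equal parts acetone and water with 0.5% TWEEN 20 and delivered at 40 psi to give about 0.0156–0.500 kg per hectare. Injury is rated visually 0–9 after four to five weeks.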

[5] = system: IPOHE (Morningglory, Ivyleaf); assay: Preemergence herbicidal evaluation; format: in vivo, Ipomoea hederacea; conditions: rated 4-5 weeks after treatment
Summary of the method: as §1

[6] = system: SAGPY (Arrowhead (Pygmaea)); assay: Preemergence weed control under flooded paddy conditions; format: in vivo, Sagittaria pygmaea; conditions: rated 3-4 weeks after treatment
Summary of the method: as §2

[7] = system: ABUTH (Velvetleaf); assay: Preemergence herbicidal evaluation; format: in vivo, Abutilon theophrasti; conditions: rated 4-5 weeks after treatment
Summary of the method: as §1

[8] = system: CASOB (Sicklepod); assay: Postemergence herbicidal evaluation; format: in vivo, Cassia obtusifolia; conditions: for CASOB herbicidal rating: postemergence
Summary of the method: as §3

[9] = system: GALAP (Galium); assay: Postemergence herbicidal evaluation; format: in vivo, Galium aparine; conditions: for GALAP herbicidal rating: postemergence
Summary of the method: as §3

[10] = system: CYPIR (Rice Flatsedge); assay: Postemergence weed control under flooded paddy conditions; format: in vivo, Cyperus iria; conditions: postemergence weeds, 3-4 weeks after treatment
Summary of the method: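 Weeds 3 to 5 cm tall and rice seedlings at the 1.5 to 2.5 leaf stage were flooded, with water held 1.5 to 3 cm above the soil. Compounds in 50/50 v/v aqueous/acetone went into the flood water at about 0.0313 to 0.500 kg/ha. Visual 0-9 ratings versus control were made 3 to 4 weeks later.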

[11] = system: TRZAWR (Wheat, Winter, cv Riband); assay: Preemergence herbicidal evaluation; format: in vivo, Triticum aestivum; conditions: rated 4-5 weeks after treatment
Summary of the method: as §1

[12] = system: GLXMAW (Soybean, Williams); assay: Preemergence herbicidal evaluation; format: in vivo, Glycine max, (L.) Merr. cv Williams; conditions: rated 4-5 weeks after treatment
Summary of the method: as §1

[13] = system: CASOB (Sicklepod); assay: Preemergence herbicidal evaluation; format: in vivo, Cassia obtusifolia; conditions: rated 4-5 weeks after treatment
Summary of the method: as §1

[14] = system: AMBEL (Ragweed, Common); assay: Postemergence herbicidal evaluation; format: in vivo, Ambrosia artemisifolia; conditions: for AMBEL herbicidal rating: postemergence
Summary of the method: as §3

Cn1c(C(F)(F)F)cc(=O)n(-c2cc(/N=C3/SCC(=O)N3CC(=O)O)c(Cl)cc2F)c1=O [Compound 52, 2-{{2-Chloro-5-[3,6-dihydro-3-methyl-2,6-dioxo-4-(trifluoromethyl)-1(2H)-pyrimidinyl]-4-fluoro-phenyl}imino}-4-oxo-3-thiazolidineacetic acid]
Preemergence herbicidal rating ECHCG ([1]; rate 0.0313 kg/ha): 0.0 | Preemergence herbicidal rating ECHCG ([1]; rate 0.0625 kg/ha): 0.0 | Preemergence herbicidal rating ECHCG ([1]; rate 0.1250 kg/ha): 0.0 | Preemergence herbicidal rating ECHCG ([1]; rate 0.2500 kg/ha): 1.0 | Preemergence herbicidal rating ZEAMX ([2]; rate 0.0313 kg/ha): 0.0 | Preemergence herbicidal rating ZEAMX ([2]; rate 0.0625 kg/ha): 0.0 | Preemergence herbicidal rating ZEAMX ([2]; rate 0.1250 kg/ha): 1.0 | Preemergence herbicidal rating ZEAMX ([2]; rate 0.2500 kg/ha): 3.0 | Herbicidal rating MOOVA ([3]; 0.2500 kg/ha): 4.0 | Postemergence herbicidal rating IPOHE ([4]; Rate 0.0158 kg/ha): 4.0 | Postemergence herbicidal rating IPOHE ([4]; Rate 0.0315 kg/ha): 9.0 | Postemergence herbicidal rating IPOHE ([4]; Rate 0.0630 kg/ha): 9.0 | Preemergence herbicidal rating IPOHE ([5]; rate 0.0313 kg/ha): 0.0 | Preemergence herbicidal rating IPOHE ([5]; rate 0.0625 kg/ha): 1.0 | Preemergence herbicidal rating IPOHE ([5]; rate 0.1250 kg/ha): 2.0 | Preemergence herbicidal rating IPOHE ([5]; rate 0.2500 kg/ha): 9.0 | Herbicidal rating SAGPY ([6]; 0.2500 kg/ha): 0.0 | Preemergence herbicidal rating ABUTH ([7]; rate 0.0313 kg/ha): 9.0 | Preemergence herbicidal rating ABUTH ([7]; rate 0.0625 kg/ha): 9.0 | Preemergence herbicidal rating ABUTH ([7]; rate 0.1250 kg/ha): 9.0 | Preemergence herbicidal rating ABUTH ([7]; rate 0.2500 kg/ha): 9.0 | Postemergence herbicidal rating CASOB ([8]; Rate 0.0158 kg/ha): 1.0 | Postemergence herbicidal rating CASOB ([8]; Rate 0.0315 kg/ha): 1.0 | Postemergence herbicidal rating CASOB ([8]; Rate 0.0630 kg/ha): 2.0 | Postemergence herbicidal rating GALAP ([9]; Rate 0.0158 kg/ha): 1.0 | Postemergence herbicidal rating GALAP ([9]; Rate 0.0315 kg/ha): 4.0 | Postemergence herbicidal rating GALAP ([9]; Rate 0.0630 kg/ha): 5.0 | Herbicidal rating CYPIR ([10]; rate 0.2500 kg/ha): 2.0 | Preemergence herbicidal rating TRZAWR ([11]; rate 0.0313 kg/ha): 0.0 | Preemergence herbicidal rating TRZAWR ([11]; rate 0.0625 kg/ha): 0.0 | Preemergence herbicidal rating TRZAWR ([11]; rate 0.1250 kg/ha): 2.0 | Preemergence herbicidal rating TRZAWR ([11]; rate 0.2500 kg/ha): 5.0 | Preemergence herbicidal rating GLXMAW ([12]; rate 0.0313 kg/ha): 0.0 | Preemergence herbicidal rating GLXMAW ([12]; rate 0.0625 kg/ha): 1.0 | Preemergence herbicidal rating GLXMAW ([12]; rate 0.1250 kg/ha): 1.0 | Preemergence herbicidal rating GLXMAW ([12]; rate 0.2500 kg/ha): 2.0 | Preemergence herbicidal rating CASOB ([13]; rate 0.0313 kg/ha): 0.0 | Preemergence herbicidal rating CASOB ([13]; rate 0.0625 kg/ha): 0.0 | Preemergence herbicidal rating CASOB ([13]; rate 0.1250 kg/ha): 1.0 | Preemergence herbicidal rating CASOB ([13]; rate 0.2500 kg/ha): 1.0 | Postemergence herbicidal rating AMBEL ([14]; Rate 0.0158 kg/ha): 1.0 | Postemergence herbicidal rating AMBEL ([14]; Rate 0.0315 kg/ha): 3.0 | Postemergence herbicidal rating AMBEL ([14]; Rate 0.0630 kg/ha): 5.0

CCOC(=O)CN1C(=O)C(CC)SC1=Nc1cc(-n2c(=O)cc(C(F)(F)F)n(C)c2=O)c(F)cc1Cl (centres unmarked) [Compound 13, Ethyl 2-{{2-chloro-5-[3,6-dihydro-3-methyl-2,6-dioxo-4-(trifluoromethyl)-1(2H)-pyrimidinyl]-4-fluorophenyl}imino}-5-ethyl-4-oxo-3-thiazolidineacetate]
ECHCG preemergence herbicidal rating ([1]; rate 0.0156 kg/ha): 0.0 | ECHCG preemergence herbicidal rating ([1]; rate 0.0313 kg/ha): 0.0 | ECHCG preemergence herbicidal rating ([1]; rate 0.0625 kg/ha): 1.0 | ECHCG preemergence herbicidal rating ([1]; rate 0.1250 kg/ha): 7.0 | ECHCG preemergence herbicidal rating ([1]; rate 0.2500 kg/ha): 8.0 | ZEAMX preemergence herbicidal rating ([2]; rate 0.0156 kg/ha): 0.0 | ZEAMX preemergence herbicidal rating ([2]; rate 0.0313 kg/ha): 2.0 | ZEAMX preemergence herbicidal rating ([2]; rate 0.0625 kg/ha): 4.0 | ZEAMX preemergence herbicidal rating ([2]; rate 0.1250 kg/ha): 5.0 | ZEAMX preemergence herbicidal rating ([2]; rate 0.2500 kg/ha): 7.0 | Herbicidal rating MOOVA ([3]; 0.0156 kg/ha): 7.5 | Herbicidal rating MOOVA ([3]; 0.0313 kg/ha): 9.0 | Herbicidal rating MOOVA ([3]; 0.0625 kg/ha): 9.0 | Herbicidal rating MOOVA ([3]; 0.1250 kg/ha): 9.0 | Herbicidal rating MOOVA ([3]; 0.2500 kg/ha): 9.0 | IPOHE herbicidal rating ([4]; rate 0.0156 kg/ha): 9.0 | IPOHE herbicidal rating ([4]; rate 0.0313 kg/ha): 9.0 | IPOHE herbicidal rating ([4]; rate 0.0625 kg/ha): 9.0 | IPOHE herbicidal rating ([4]; rate 0.1250 kg/ha): 9.0 | IPOHE preemergence herbicidal rating ([5]; rate 0.0156 kg/ha): 2.5 | IPOHE preemergence herbicidal rating ([5]; rate 0.0313 kg/ha): 3.5 | IPOHE preemergence herbicidal rating ([5]; rate 0.0625 kg/ha): 9.0 | IPOHE preemergence herbicidal rating ([5]; rate 0.1250 kg/ha): 8.0 | IPOHE preemergence herbicidal rating ([5]; rate 0.2500 kg/ha): 9.0 | Herbicidal rating SAGPY ([6]; 0.0156 kg/ha): 0.0 | Herbicidal rating SAGPY ([6]; 0.0313 kg/ha): 0.0 | Herbicidal rating SAGPY ([6]; 0.0625 kg/ha): 0.0 | Herbicidal rating SAGPY ([6]; 0.1250 kg/ha): 0.0 | Herbicidal rating SAGPY ([6]; 0.2500 kg/ha): 0.0 | ABUTH preemergence herbicidal rating ([7]; rate 0.0156 kg/ha): 6.0 | ABUTH preemergence herbicidal rating ([7]; rate 0.0313 kg/ha): 9.0 | ABUTH preemergence herbicidal rating ([7]; rate 0.0625 kg/ha): 9.0 | ABUTH preemergence herbicidal rating ([7]; rate 0.1250 kg/ha): 9.0 | ABUTH preemergence herbicidal rating ([7]; rate 0.2500 kg/ha): 9.0 | CASOB herbicidal rating ([8]; rate 0.0156 kg/ha): 0.0 | CASOB herbicidal rating ([8]; rate 0.0313 kg/ha): 0.0 | CASOB herbicidal rating ([8]; rate 0.0625 kg/ha): 3.0 | CASOB herbicidal rating ([8]; rate 0.1250 kg/ha): 3.0 | GALAP herbicidal rating ([9]; rate 0.0156 kg/ha): 3.0 | GALAP herbicidal rating ([9]; rate 0.0313 kg/ha): 3.0 | GALAP herbicidal rating ([9]; rate 0.0625 kg/ha): 5.0 | GALAP herbicidal rating ([9]; rate 0.1250 kg/ha): 5.0 | Herbicidal rating CYPIR ([10]; rate 0.0313 kg/ha): 0.0 | Herbicidal rating CYPIR ([10]; rate 0.0625 kg/ha): 0.0 | Herbicidal rating CYPIR ([10]; rate 0.1250 kg/ha): 0.5 | Herbicidal rating CYPIR ([10]; rate 0.2500 kg/ha): 1.0 | TRZAWR preemergence herbicidal rating ([11]; rate 0.0313 kg/ha): 1.0 | TRZAWR preemergence herbicidal rating ([11]; rate 0.0625 kg/ha): 1.0 | TRZAWR preemergence herbicidal rating ([11]; rate 0.1250 kg/ha): 4.0 | TRZAWR preemergence herbicidal rating ([11]; rate 0.2500 kg/ha): 6.0 | GLXMAW preemergence herbicidal rating ([12]; rate 0.0156 kg/ha): 0.0 | GLXMAW preemergence herbicidal rating ([12]; rate 0.0313 kg/ha): 0.0 | GLXMAW preemergence herbicidal rating ([12]; rate 0.0625 kg/ha): 1.0 | GLXMAW preemergence herbicidal rating ([12]; rate 0.1250 kg/ha): 2.0 | GLXMAW preemergence herbicidal rating ([12]; rate 0.2500 kg/ha): 4.0 | CASOB preemergence herbicidal rating ([13]; rate 0.0156 kg/ha): 0.0 | CASOB preemergence herbicidal rating ([13]; rate 0.0313 kg/ha): 0.0 | CASOB preemergence herbicidal rating ([13]; rate 0.0625 kg/ha): 0.0 | CASOB preemergence herbicidal rating ([13]; rate 0.1250 kg/ha): 1.0 | CASOB preemergence herbicidal rating ([13]; rate 0.2500 kg/ha): 3.0 | AMBEL herbicidal rating ([14]; rate 0.0156 kg/ha): 7.0 | AMBEL herbicidal rating ([14]; rate 0.0313 kg/ha): 9.0 | AMBEL herbicidal rating ([14]; rate 0.0625 kg/ha): 9.0 | AMBEL herbicidal rating ([14]; rate 0.1250 kg/ha): 9.0
